From US9193719B2, “1,2,4-triazol-5-ones and analogs exhibiting anti-cancer and anti-proliferative activities” (Deciphera Pharmaceuticals, LLC, priority 2013, dated 2015) come the findings set out here.

In one experiment the test system is M-NFS-60 cells. The experiment in a line: M-NFS-60 cell proliferation assay (resazurin). The class given is cell-based. Conditions: 67 h incubation. The gist of the method:
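Cells kept in medium containing 20 ng/mL mouse recombinant M-CSF. Fluorescence was read at ex 540/em 600 nm, and IC50 was fitted from percent inhibition across a range of inhibitor concentrations.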
For orientation: Alamar Blue is a resazurin reagent that responds to reducing activity.

A further experiment has as its system osteoclast precursors. The experiment in a line: Osteoclast tartrate-resistant acid phosphatase assay. Type of experiment: cell-based. Conditions: RANKL and M-CSF, 7-14 days, tartrate-resistant acid phosphatase activity.
The target in experiment [1] is T1, unphosphorylated PDGFRβ kinase (uPDGFRβ, Seq. ID No. 3) (Homo sapiens, UniProt P09619).
T1 construct: purchased DeCode
Put plainly: uPDGFRβ kinase enzymatic assay (pyruvate kinase/lactate dehydrogenase coupled). The following applies: ATP 500 μM, rate 1.5 to 2.5 h. The class given is biochemical. The essentials:
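Unphosphorylated PDGFRβ (15.7 nM) with 500 μM ATP and poly E4Y (2.5 mg/mL) in Tris pH 7.5, 0.2% octyl-glucoside, 1% DMSO; ADP coupled via PK/LDH to NADH oxidation at A340, read continuously 4 h at 30 °C. Rates from 1.5–2.5 h window versus no-compound control gave IC50.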

Experiment [2] concerns the target T2, unphosphorylated c-KIT kinase (uKIT, Seq. ID no. 2) (Homo sapiens, UniProt P10721).
T2 construct: uKit with N-terminal GST fusion used for screening
Put plainly: uKit kinase enzymatic assay (pyruvate kinase/lactate dehydrogenase coupled). The class given is biochemical. The following applies: ATP 2000 μM, rate 3 to 4 h. The essentials:
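Coupled pyruvate kinase/lactate dehydrogenase readout of ADP, following NADH oxidation at A340 continuously for 4 h at 30 °C. Mix: 12 nM unphosphorylated KIT, 1 mg/mL polyE4Y, 2000 μM ATP, 10 mM MgCl2, 90 mM Tris pH 7.5, 0.2% octyl-glucoside, 1% DMSO. IC50 from % inhibition of rates at 3–4 h.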

T1 sequence (P09619 557-1106): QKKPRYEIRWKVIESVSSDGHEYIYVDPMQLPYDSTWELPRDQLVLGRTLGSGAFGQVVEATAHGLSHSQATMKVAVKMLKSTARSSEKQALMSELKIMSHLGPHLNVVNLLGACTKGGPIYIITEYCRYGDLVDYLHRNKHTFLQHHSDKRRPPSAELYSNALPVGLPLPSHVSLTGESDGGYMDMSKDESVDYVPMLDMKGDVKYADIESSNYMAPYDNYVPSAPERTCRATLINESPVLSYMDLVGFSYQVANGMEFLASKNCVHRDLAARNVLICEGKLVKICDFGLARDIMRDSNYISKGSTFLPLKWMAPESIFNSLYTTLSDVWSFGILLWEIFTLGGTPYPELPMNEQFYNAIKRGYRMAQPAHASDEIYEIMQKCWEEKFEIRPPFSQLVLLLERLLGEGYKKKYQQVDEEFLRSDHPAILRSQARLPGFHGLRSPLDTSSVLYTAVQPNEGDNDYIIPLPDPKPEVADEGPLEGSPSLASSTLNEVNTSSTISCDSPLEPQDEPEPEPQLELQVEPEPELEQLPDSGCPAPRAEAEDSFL
T2 sequence (P10721 with tags, fused parts or gaps): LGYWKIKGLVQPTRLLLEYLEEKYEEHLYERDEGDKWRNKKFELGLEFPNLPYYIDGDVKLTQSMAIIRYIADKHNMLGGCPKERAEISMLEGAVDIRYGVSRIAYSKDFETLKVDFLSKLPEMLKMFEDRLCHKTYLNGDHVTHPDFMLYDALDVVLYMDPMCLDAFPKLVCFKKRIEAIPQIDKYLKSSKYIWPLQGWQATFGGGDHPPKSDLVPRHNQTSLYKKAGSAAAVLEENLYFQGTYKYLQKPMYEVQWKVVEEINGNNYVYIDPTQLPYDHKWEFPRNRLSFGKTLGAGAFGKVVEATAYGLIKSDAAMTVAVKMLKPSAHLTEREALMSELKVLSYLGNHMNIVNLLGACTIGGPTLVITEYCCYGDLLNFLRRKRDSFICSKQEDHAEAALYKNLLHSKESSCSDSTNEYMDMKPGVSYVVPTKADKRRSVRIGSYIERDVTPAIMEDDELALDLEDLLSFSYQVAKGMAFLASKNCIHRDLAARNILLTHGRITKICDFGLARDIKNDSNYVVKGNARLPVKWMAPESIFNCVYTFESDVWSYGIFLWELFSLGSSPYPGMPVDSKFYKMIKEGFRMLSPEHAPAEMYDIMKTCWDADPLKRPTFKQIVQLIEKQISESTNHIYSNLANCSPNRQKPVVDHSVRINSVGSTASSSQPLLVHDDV

In the case of `CCn1cc(-c2cc(Oc3ccc(-n4nc(C(C)(C)C)[nH]c4=O)nc3C)ccn2)cn1` [Example 38, 3-(tert-butyl)-1-(5-((2-(1-ethyl-1H-pyrazol-4-yl)pyridin-4-yl)oxy)-6-methylpyridin-2-yl)-1H-1,2,4-triazol-5(4H)-one], the IC50 with M-NFS-60 cells was 10 to 100 nM; with osteoclast precursors, 10 to 100 nM; in experiment [1], over 1000 nM; in experiment [2], over 1000 nM.
`Cc1nc(-n2nc(C(C)(C)C)[nH]c2=O)ccc1Oc1ccnc(-c2cnco2)c1` [Example 39, 3-(tert-butyl)-1-(6-methyl-5-((2-(oxazol-5-yl)pyridin-4-yl)oxy)pyridin-2-yl)-1H-1,2,4-triazol-5(4H)-one]: the IC50 was 10 to 100 nM with M-NFS-60 cells, 10 to 100 nM in the experiment with osteoclast precursors, over 1000 nM in experiment [1] and over 1000 nM in experiment [2].
Turning to `Cc1nc(-n2nc(C3(C(F)(F)F)CCC3)[nH]c2=O)ccc1Oc1ccnc(-c2cnn(C)c2)c1` [Example 43, 1-(6-methyl-5-((2-(1-methyl-1H-pyrazol-4-yl)pyridin-4-yl)oxy)pyridin-2-yl)-3-(1-(trifluoromethyl)cyclobutyl)-1H-1,2,4-triazol-5(4H)-one], the IC50 was 100 to 1000 nM with M-NFS-60 cells, 10 to 100 nM in the experiment with osteoclast precursors, 100 to 1000 nM in experiment [1] and 10 to 100 nM in experiment [2].
On to `COCC(C)(C)c1nn(-c2ccc(Oc3ccnc(-c4cnn(C)c4)c3)c(C)n2)c(=O)[nH]1` [Example 46, 3-(1-methoxy-2-methylpropan-2-yl)-1-(6-methyl-5-((2-(1-methyl-1H-pyrazol-4-yl)pyridin-4-yl)oxy)pyridin-2-yl)-1H-1,2,4-triazol-5(4H)-one], for which the IC50 in the experiment with M-NFS-60 cells was 100 to 1000 nM; in the experiment on osteoclast precursors, 10 to 100 nM; in experiment [1], over 1000 nM; in experiment [2], 100 to 1000 nM.
Turning to `Cc1nc(-n2nc(C(C)(C)C)[nH]c2=O)ccc1Oc1cc(-c2cnn(C)c2)ncn1` [Example 47, 3-(tert-butyl)-1-(6-methyl-5-((6-(1-methyl-1H-pyrazol-4-yl)pyrimidin-4-yl)oxy)pyridin-2-yl)-1H-1,2,4-triazol-5(4H)-one], the IC50 is 100 to 1000 nM in the experiment on M-NFS-60 cells, 10 to 100 nM in the experiment with osteoclast precursors, over 1000 nM in experiment [1] and over 1000 nM in experiment [2].
On to `Cc1nc(-n2cc(C(C)(C)C)[nH]c2=O)ccc1Oc1ccnc(-c2cnn(C)c2)c1` [Example 48, 4-(tert-butyl)-1-(6-methyl-5-((2-(1-methyl-1H-pyrazol-4-yl)pyridin-4-yl)oxy)pyridin-2-yl)-1H-imidazol-2(3H)-one], for which the IC50 was 10 to 100 nM in the experiment with M-NFS-60 cells, 10 to 100 nM with osteoclast precursors, over 1000 nM in experiment [1] and over 1000 nM in experiment [2].
`Cc1nc(-n2nc(C(C)(C)C)oc2=O)ccc1Oc1ccnc(-c2cnn(C)c2)c1` [Example 49, 5-(tert-butyl)-3-(6-methyl-5-((2-(1-methyl-1H-pyrazol-4-yl)pyridin-4-yl)oxy)pyridin-2-yl)-1,3,4-oxadiazol-2(3H)-one]: the IC50 is 10 to 100 nM in the experiment on M-NFS-60 cells, 10 to 100 nM with osteoclast precursors, over 1000 nM in experiment [1] and 100 to 1000 nM in experiment [2].

For orientation: IC50 means the point on the concentration scale where inhibition reaches its midpoint.
